In patent US6265423A, “Aromatic polycyclic retinoid-type derivatives, method for preparing same, and use thereof for making pharmaceutical and cosmetic compositions” (priority 1996, dated 2001):
“Also recorded” adds a separate entry of the source. Where two headings read alike, the source gives them in different places.

Key:
[1] = system: T-47D human mammary cancer cells; experiment: MTT test, proliferation of T-47D; type: cell-based; details: for activity at 100 µM / activity at 1 µM / activity at 0.01 µM: Homo sapiens, T47D, 72 h, read-out: level of proliferation; for effect on cellular increase, T-47D (in words): MTT test
Summary of the method: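 Cells grown at 37° C in MEM/5% FCS were plated for 24 h, then treated at 10^-8, 10^-6 or 10^-4 M. Each condition was run in 6 duplicates.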

[2] = system: Gal4-RAR (RARα, RARβ, RARγ); experiment: Chimerical receptors Gal4-RAR, overall profile; type: cell-based
[3] = cited from earlier work
RAR and RXR receptors = experiment: RAR/RXR activity profile drawn from the models; type: cell-based
Excerpt: The reference molecules have allowed one to show the effectiveness and the complementary nature of the different models used and lead to the following conclusions: chimerical constructions GAL-RAR and RAR-ERcassette allow the determination of the RAR agonist profile of molecules, but also an RXR agonist activity with RAR-ERcassette, the HRLN lineage mainly conveys the activity of a compound mediated by endogenic RARα, the HRL+N lineage also provides evidence of an RXR agonist activity of the retinoids, the anti-oestrogenic effect of the retinoids (oestrogen-induced cellular proliferation and MELN lineage) is mediated by RARα, the anti-AP-1 effect is mediated in the MCF-7 cells (MTLN lineage) by RARα, RARγ and RXRα, and an additive effect exists between the RAR and RXR routes.

[4] = system: ZR-75-1, T-47D, A549 and A-427 lineages; experiment: MTT test, tumour cell lines overall; type: cell-based, human
Description: This test is based on the mitochondrial reduction by living metabolically active cells of the MTT (3-(4,5-dimethylthiazol-2-yl)-2,5-diphenyltetrazolium bromide) of yellowish colour into a blue coloured product, formazan. The quantity of formazan obtained is directly proportional to the number of living cells. After incubation of the cells for 24 hours in microplates with 96 flat bottomed wells, the culture medium is replaced by 100 μl of fresh culture medium containing the drug to be tested.
The microplates are then incubated for 3 hours at 37° C. and centrifuged for 10 minutes at 400 g (GPR centrifuge, Beckman). The MTT solution is replaced by 100 μl of dimethylsulphoxide (Merck). The microplates are agitated (Vari-Shaker, Dynatech) for 10 minutes.
In the microplates, the control cells like the treated cells were incubated in a medium without the compounds to be tested for 24 hours. The control cells are incubated in a medium without a drug throughout the whole experiment, while the treated cells are incubated in different media. These media contain the molecule to be tested at various concentrations: 10^-8 M, 10^-6 M and 10^-4 M. All the tests are carried out in 6 duplicates.

T-47D lineage = experiment: SAMBA image analysis test; type: cell-based, human
Excerpt: The molecules which have shown themselves to be the most interesting in the MTT test have been evaluated in an image analysis test called SAMBA. In effect, the recent advances in the field of image analysis have allowed new approaches to the evaluation of different cellular kinetic parameters and the measurement of the distribution of chromatin. The data thereby provided are processed using different statistical tests.
The use of the Systeme d'Analyses Microscopiques a Balayage Automatique 2005 (SAMBA 2005, Alcatel TITN, France), (System of Microscopic Analyses with Automatic Sweep 2005) permits measurement of the influence of the compounds researched at three levels:
The cells in exponential growth are cultured on small glass slip plates (Kiss R. et al. Eur. J. Cancer, 27, 1268-1274, 1991) at the rate of from […] cells/ml (depending on the cellular line being considered) in 3 ml of minimum essential medium (MEM, Gibco). […]
The interest in the Feulgen coloration resides in the possibility of colouring the DNA in a specific and stoichiometric fashion (Giroud F., Cell, 44, 177-188, 1982; Kiss R. et al., J. Histochem. Cytochem., 41, 6, 935-945, 1993). For each experimental condition, 900 nuclei are analysed by the image analyser. […]
These 15 parameters are calculated by specific software, from: […]

MCF-7 cells = experiment: Effect on oestrogen-induced proliferation of MCF-7 cells; type: cell-based, human; details: estradiol 10^-9 M
Description: MCF-7 cells and HeLa are cultivated in DMFM with phenol red to which 5% foetal calf serum is added. […] The experimental tests are carried out in DMEM without phenol red to which foetal calf serum treated with dextran carbon is added at 3%. […] The experiments using the different retinoids are carried out sheltered from the light so as to avoid any isomerisation.
So as to test the anti-proliferation effect of the retinoids, growth experiments under oestrogenic conditions were carried out on cells MCF-7 and T-47D. These are the human oestrogen-dependent mammary cancer cells which express the receptor to RE oestrogens. The effect of the molecules is evaluated after 7 days of culture in oestrogenic conditions (estradiol 10^-9 M) by dosing the cellular DNA. The cells are distributed in 24 well plates at a density of 2×10^4 cells per well. The tests with the different retinoids are carried out in triplicate and the culture medium is changed after 4 days of growth.

Question: Which activity at 100 µM ([1]; T-47D, 10^-4 M, control = 100%) does the source give for `CC(C=C/C=C(C)\C=C\C1=C(C)CCCC1(C)C)=CC(=O)O` [CB13407, 9-cis retinoic acid, reference compound] here?
Answer: Its activity at 100 µM is 16.3%.

Question: What about the activity at 1 µM ([1]; T-47D, 10^-6 M, control = 100%) of the same compound?
Answer: The activity at 1 µM was 91.7%.

Question: And the activity at 0.01 µM ([1]; T-47D, 10^-8 M, control = 100%)?
Answer: Its activity at 0.01 µM is 122%.

Question: And the “effect on cellular increase, T-47D (in words)” value (“effect on cellular increase” below) [1]?
Answer: Its value is “stimulates the cellular increase at 10^-6 M and 10^-8 M”.

Question: Which results are given for `CC1=C(/C=C/C(C)=C/C=C/C(C)=C/C(=O)O)C(C)(C)CCC1` [CB16178, all-trans retinoic acid, reference compound]?
Answer: Gal-RAR agonist profile (in words) [2]: good RAR agonists; activity at 100 µM ([1]; T-47D, 10^-4 M, control = 100%): 1.8%; activity at 1 µM ([1]; T-47D, 10^-6 M, control = 100%): 52.6%; activity at 0.01 µM ([1]; T-47D, 10^-8 M, control = 100%): 77.2%; effect on cellular increase, T-47D (in words) [1]: inhibit the cellular increase of the two mammary lineages at the concentrations tested; metabolism (in words) ([3]; chronic treatment): an inducer of its own metabolism; adverse effects in chronic treatment (in words) [3]: powerful effect of hypervitaminose, of mucocutaneous toxicity and of teratogenecity

Question: Which “Gal-RAR agonist profile (in words)” value [2] does the source give for `C/C(=C/c1ccc2c(c1)C(C)(C)CCC2(C)C)c1ccc(C(=O)O)nc1` [CB16279, (Z) 5-[1-(5,6,7,8-tetrahydro-5,5,8,8-tetramethyl-2-naphthalenyl)-2-propenyl]pyridinyl-2-carboxylic acid] here?
Answer: Its value is “partial agonists at 1 μM for the three RAR receptors”.

Question: And the “RAR/RXR activity profile (in words)” value (RAR and RXR receptors)?
Answer: Its value is “panagonistic”.

Question: Which “Gal-RAR agonist profile (in words)” value [2] does the source give for `C/C(=C/c1ccc2c(c1)C(C)(C)CCC2(C)C)c1ccc(C(=O)O)cc1` [CB28628, reference compound] here?
Answer: Its value is “completely agonistic for the three types of RAR receptors”.

Question: What about the activity at 100 µM ([1]; T-47D, 10^-4 M, control = 100%) of the same compound?
Answer: Its activity at 100 µM is 4%.

Question: What about the activity at 1 µM ([1]; T-47D, 10^-6 M, control = 100%) of the same compound?
Answer: Its activity at 1 µM is 59.3%.

Question: What about the activity at 0.01 µM ([1]; T-47D, 10^-8 M, control = 100%) of the same compound?
Answer: The activity at 0.01 µM was 93.2%.

Question: With `CC1(C)CCC(C)(C)c2cc(/C=C(\c3ccc(C(=O)O)cc3)C(F)(F)F)ccc21` [CB36493, (E) 4-[1-trifluoromethyl-2-(5,6,7,8-tetrahydro-5,5,8,8-tetramethyl-2-naphthalenyl)-1-ethenyl]benzoic acid] as the compound, how does the “Gal-RAR agonist profile (in words)” value [2] read?
Answer: Its value is “partial agonists at 1 μM for the three RAR receptors”.

Question: What about the “RAR/RXR activity profile (in words)” value (RAR and RXR receptors) of the same compound?
Answer: Its value is “panagonistic”.

Question: What about the activity at 100 µM ([1]; T-47D, 10^-4 M, control = 100%) of the same compound?
Answer: The activity at 100 µM was 21.4%.

Question: And the activity at 1 µM ([1]; T-47D, 10^-6 M, control = 100%)?
Answer: Its activity at 1 µM is 116%.

Question: What about the activity at 0.01 µM ([1]; T-47D, 10^-8 M, control = 100%) of the same compound?
Answer: The activity at 0.01 µM was 134%.

Question: Which “Gal-RAR agonist profile (in words)” value [2] does the source give for `C/C(=C/c1ccc2c(c1)C(C)(C)CCC2(C)C)c1ccc(C(=O)O)cn1` [CB38416, (Z) 2-[1-(5,6,7,8-tetrahydro-5,5,8,8-tetramethyl-2-naphthalenyl)-2-propenyl]pyridinyl-5-carboxylic acid] here?
Answer: The value was “partial agonist for RARα and RARβ but complete for RARγ”.

Question: And the “RAR/RXR activity profile (in words)” value (RAR and RXR receptors)?
Answer: The value was “panagonistic”.

Question: What about the activity at 100 µM ([1]; T-47D, 10^-4 M, control = 100%) of the same compound?
Answer: Its activity at 100 µM is 42.5%.

Question: What about the activity at 1 µM ([1]; T-47D, 10^-6 M, control = 100%) of the same compound?
Answer: Its activity at 1 µM is 82.6%.

Question: And the activity at 0.01 µM ([1]; T-47D, 10^-8 M, control = 100%)?
Answer: The activity at 0.01 µM was 119%.

Question: Which activity at 100 µM ([1]; T-47D, 10^-4 M, control = 100%) does the source give for `C/C(=C\c1cc2c(cc1C)C(C)(C)CCC2(C)C)c1ccc(C(=O)O)cc1` [CB71802] here?
Answer: Its activity at 100 µM is 14.3%.

Question: And the activity at 1 µM ([1]; T-47D, 10^-6 M, control = 100%)?
Answer: Its activity at 1 µM is 113%.

Question: And the activity at 0.01 µM ([1]; T-47D, 10^-8 M, control = 100%)?
Answer: Its activity at 0.01 µM is 132%.

Question: For `C/C(=C\c1ccc2c(c1)C(C)(C)CCC2(C)C)c1ccc(C(=O)Nc2nnn[nH]2)cc1` [CB73364], which activity at 100 µM ([1]; T-47D, 10^-4 M, control = 100%) is on record?
Answer: Its activity at 100 µM is 0%.

Question: And the activity at 1 µM ([1]; T-47D, 10^-6 M, control = 100%)?
Answer: Its activity at 1 µM is 53%.

Question: And the activity at 0.01 µM ([1]; T-47D, 10^-8 M, control = 100%)?
Answer: Its activity at 0.01 µM is 62%.

Question: And the “effect on cellular increase” value [1]?
Answer: The value was “inhibits the increase of the T-47D cells”.

Question: What does the source list for `CC1(C)CCC(C)(C)c2cc(/C=C(\c3ccc(-c4nnn[nH]4)cc3)C(F)(F)F)ccc21` [CB77402, (E) 5-[4-[1-trifluoromethyl-2-(5,6,7,8-tetrahydro-5,5,8,8-tetramethyl-2-naphthalenyl)-1-ethenyl]phenyl]-1H-tetrazole]?
Answer: Gal-RAR agonist profile (in words) [2]: not RAR agonists; RAR/RXR activity profile (in words) (RAR and RXR receptors): RXR specific activity; activity at 100 µM ([1]; T-47D, 10^-4 M, control = 100%): 15.4%; activity at 1 µM ([1]; T-47D, 10^-6 M, control = 100%): 118%; activity at 0.01 µM ([1]; T-47D, 10^-8 M, control = 100%): 128%

Question: Which “inhibition of the cellular lineages (in words)” value [4] does the source give for `C/C(=C/c1ccc2c(c1)C(C)(C)CCC2(C)C)c1ccc(-c2nnn[nH]2)cc1` [CB92834] here?
Answer: Its value is “as active on the MTT test as the reference products tested; also recorded: more active on the oestrogen-sensitive lineages such as the mammary lineages ZR-75-1 and T-47D than on the pulmonary lineages”.

Question: What about the “morphonuclear / anti-tumoral effect (in words)” value (T-47D lineage) of the same compound?
Answer: Its value is “not linked to a cytotoxic effect; also recorded: mediated by an activation of the cellular death and/or an inhibition of the proliferation due to the induction of the cellular differentiation”.

Question: And the “Gal-RAR agonist profile (in words)” value [2]?
Answer: Its value is “not RAR agonists”.

Question: And the “RAR/RXR activity profile (in words)” value (RAR and RXR receptors)?
Answer: The value was “RXR specific activity”.

Question: And the activity at 100 µM ([1]; T-47D, 10^-4 M, control = 100%)?
Answer: Its activity at 100 µM is 3.5%.

Question: And the activity at 1 µM ([1]; T-47D, 10^-6 M, control = 100%)?
Answer: Its activity at 1 µM is 83.2%.

Question: What about the activity at 0.01 µM ([1]; T-47D, 10^-8 M, control = 100%) of the same compound?
Answer: Its activity at 0.01 µM is 86.5%.

Question: And the “effect on cellular increase” value [1]?
Answer: The value was “strongly inhibitive activity on the cellular increase of the two lineages”.

Question: With `Cc1cc2c(cc1C(=O)c1ccc(C(=O)O)cc1)C(C)(C)CCC2(C)C` [LGD-CB14499, reference compound] as the compound, how does the activity at 0.01 µM [1] read?
Answer: The activity at 0.01 µM was 88.2%.

Question: And the activity at 1 µM [1]?
Answer: The activity at 1 µM was 82.7%.

Question: And the activity at 100 µM [1]?
Answer: The activity at 100 µM was 1.3%.

Question: Which “inhibition of the cellular lineages (in words)” value [4] does the source give for `C/C(=C\c1ccc(C(=O)O)cc1)c1ccc2c(c1)C(C)(C)CCC2(C)C` [TTNPB, reference compound] here?
Answer: Its value is “induces the strongest inhibition of the cellular lineages”.

Question: And the “morphonuclear / anti-tumoral effect (in words)” value (T-47D lineage)?
Answer: The value was “strongly suggests a direct correlation between the cytotoxic effect of the molecule and its anti-tumoral activity; also recorded: exercises its anti-tumoral activity through a direct cytotoxic (cytocidal) effect”.

Question: What about the “effect on oestrogen-induced growth, MCF-7 (in words)” value (MCF-7 cells) of the same compound?
Answer: Its value is “stronger inhibiting effect than the natural ligands (all-trans RA and 9-cis RA) and than LGD1069”.

Question: And the “Gal-RAR agonist profile (in words)” value [2]?
Answer: The value was “good RAR agonists”.

Question: What about the activity at 100 µM ([1]; T-47D, 10^-4 M, control = 100%) of the same compound?
Answer: The activity at 100 µM was 3.5%.

Question: And the activity at 1 µM ([1]; T-47D, 10^-6 M, control = 100%)?
Answer: Its activity at 1 µM is 61.7%.

Question: What about the activity at 0.01 µM ([1]; T-47D, 10^-8 M, control = 100%) of the same compound?
Answer: The activity at 0.01 µM was 58.5%.

Question: And the “effect on cellular increase” value [1]?
Answer: The value was “inhibit the cellular increase of the two mammary lineages at the concentrations tested”.
